Values quoted from earlier work, collected in patent publication US12414981B2, “JNK inhibitors for use in treating and preventing neurodegenerative disorders” (Northwestern University, priority 2021, dated 2025).

Conditions: in vivo

Oc1c2ccccc2c2c3c(cccc13)N=N2 [SP600125, anthra [1,9]pyrazol-6 (2H)-one]
crosses the blood-brain barrier: crosses the blood-brain barrier
